Reference: patent US8791108B2, “Inhibitors of human immunodeficiency virus replication” (priority 2011, dated 2014)

system: recombinant NL-Rluc virus; experiment: Inhibition of HIV replication (NL-RLuc luciferase reporter virus, MT-2 cells); type: cell-based; details: Human immunodeficiency virus 1, MT2, 120 h, read-out: Activity

Compared with Cc1nc2cc(C(=O)NCc3ccc(F)cc3-c3ncnn3C)nn2c(-c2cc(F)c3c(c2C)CCCO3)c1[C@H](OC(C)(C)C)C(=O)O [Example 18, (2S)-2-(tert-butoxy)-2-(2-((4-fluoro-2-(1-methyl-1H-1,2,4-triazol-5-yl)benzyl)carbamoyl)-7-(8-fluoro-5-methylchroman-6-yl)-5-methylpyrazolo[1,5-a]pyrimidin-6-yl)acetic acid], COc1cc(F)ccc1CNC(=O)c1cc2nc(C)c([C@H](OC(C)(C)C)C(=O)O)c(-c3cc(F)c4c(c3C)CCCO4)n2n1 [Example 29, (2S)-2-(tert-butoxy)-2-(2-((4-fluoro-2-methoxybenzyl)carbamoyl)-7-(8-fluoro-5-methylchroman-6-yl)-5-methylpyrazolo[1,5-a]pyrimidin-6-yl)acetic acid] is lower in EC50: 0.1 to 1 µM for the first, less than 0.1 µM for the second. The second is the more potent here.

Cc1ccccc1CN(C)C(=O)c1cc2nc(C)c([C@H](OC(C)(C)C)C(=O)O)c(-c3cc(F)c4c(c3C)CCCO4)n2n1 [Example 19, (2S)-2-(tert-butoxy)-2-(7-(8-fluoro-5-methylchroman-6-yl)-5-methyl-2-(methyl(2-methylbenzyl)carbamoyl)pyrazolo[1,5-a]pyrimidin-6-yl)acetic acid] and Cc1nc2cc(C(=O)N(C)Cc3ccccc3F)nn2c(-c2cc(F)c3c(c2C)CCCO3)c1[C@H](OC(C)(C)C)C(=O)O [Example 22, (2S)-2-(tert-butoxy)-2-(7-(8-fluoro-5-methylchroman-6-yl)-2-((2-fluorobenzyl)(methyl)carbamoyl)-5-methylpyrazolo[1,5-a]pyrimidin-6-yl)acetic acid] cannot be ordered by EC50: less than 0.1 µM for the first, less than 0.1 µM for the second.

Cc1cccc(CN(C)C(=O)c2cc3nc(C)c([C@H](OC(C)(C)C)C(=O)O)c(-c4cc(F)c5c(c4C)CCCO5)n3n2)c1 [Example 20, (2S)-2-(tert-butoxy)-2-(7-(8-fluoro-5-methylchroman-6-yl)-5-methyl-2-(methyl(3-methylbenzyl)carbamoyl)pyrazolo[1,5-a]pyrimidin-6-yl)acetic acid] and Cc1nc2cc(C(=O)N(C)Cc3cccc(F)c3)nn2c(-c2cc(F)c3c(c2C)CCCO3)c1[C@H](OC(C)(C)C)C(=O)O [Example 23] cannot be ordered by EC50: less than 0.1 µM for the first, less than 0.1 µM for the second.

CCc1ccc(CN(C)C(=O)c2cc3nc(C)c([C@H](OC(C)(C)C)C(=O)O)c(-c4cc(F)c5c(c4C)CCCO5)n3n2)cc1 [Example 21, (2S)-2-(tert-butoxy)-2-(2-((4-ethylbenzyl)(methyl)carbamoyl)-7-(8-fluoro-5-methylchroman-6-yl)-5-methylpyrazolo[1,5-a]pyrimidin-6-yl)acetic acid] and Cc1ccc(CN(C)C(=O)c2cc3nc(C)c([C@H](OC(C)(C)C)C(=O)O)c(-c4cc(F)c5c(c4C)CCCO5)n3n2)cc1 [Example 32, (2S)-2-(tert-butoxy)-2-(7-(8-fluoro-5-methylchroman-6-yl)-5-methyl-2-(methyl(4-methylbenzyl)carbamoyl)pyrazolo[1,5-a]pyrimidin-6-yl)acetic acid] cannot be ordered by EC50: less than 0.1 µM for the first, less than 0.1 µM for the second.

CCc1cc(CNC(=O)c2cc3nc(C)c([C@H](OC(C)(C)C)C(=O)O)c(-c4cc(F)c5c(c4C)CCCO5)n3n2)ccc1F [Example 24, (2S)-2-(tert-butoxy)-2-(2-((3-ethyl-4-fluorobenzyl)carbamoyl)-7-(8-fluoro-5-methylchroman-6-yl)-5-methylpyrazolo[1,5-a]pyrimidin-6-yl)acetic acid] and CCCc1cc(CNC(=O)c2cc3nc(C)c([C@H](OC(C)(C)C)C(=O)O)c(-c4cc(F)c5c(c4C)CCCO5)n3n2)ccc1F [Example 25, (2S)-2-(tert-butoxy)-2-(2-((4-fluoro-3-propylbenzyl)carbamoyl)-7-(8-fluoro-5-methylchroman-6-yl)-5-methylpyrazolo[1,5-a]pyrimidin-6-yl)acetic acid] cannot be ordered by EC50: less than 0.1 µM for the first, less than 0.1 µM for the second.

Cc1nc2cc(C(=O)NCc3ccc(F)c(C4CC4)c3)nn2c(-c2cc(F)c3c(c2C)CCCO3)c1[C@H](OC(C)(C)C)C(=O)O [Example 26] and COc1cc(CNC(=O)c2cc3nc(C)c([C@H](OC(C)(C)C)C(=O)O)c(-c4cc(F)c5c(c4C)CCCO5)n3n2)ccc1F [Example 35, (2S)-2-(tert-butoxy)-2-(2-((4-fluoro-3-methoxybenzyl)carbamoyl)-7-(8-fluoro-5-methylchroman-6-yl)-5-methylpyrazolo[1,5-a]pyrimidin-6-yl)acetic acid] cannot be ordered by EC50: less than 0.1 µM for the first, less than 0.1 µM for the second.

Cc1nc2cc(C(=O)NCc3ccc(F)c(C(F)F)c3)nn2c(-c2cc(F)c3c(c2C)CCCO3)c1[C@H](OC(C)(C)C)C(=O)O [Example 27] and Cc1nc2cc(C(=O)NCc3ccc4c(c3)OCO4)nn2c(-c2cc(F)c3c(c2C)CCCO3)c1[C@H](OC(C)(C)C)C(=O)O [Example 34, (2S)-2-(2-((benzo[d][1,3]dioxol-5-ylmethyl)carbamoyl)-7-(8-fluoro-5-methylchroman-6-yl)-5-methylpyrazolo[1,5-a]pyrimidin-6-yl)-2-(tert-butoxy)acetic acid] cannot be ordered by EC50: less than 0.1 µM for the first, less than 0.1 µM for the second.

Cc1nc2cc(C(=O)NCc3ccc(F)cc3S(C)(=O)=O)nn2c(-c2cc(F)c3c(c2C)CCCO3)c1[C@H](OC(C)(C)C)C(=O)O [Example 28, (2S)-2-(tert-butoxy)-2-(2-((4-fluoro-2-(methylsulfonyl)benzyl)carbamoyl)-7-(8-fluoro-5-methylchroman-6-yl)-5-methylpyrazolo[1,5-a]pyrimidin-6-yl)acetic acid] and CNC(=O)c1cc(F)ccc1CNC(=O)c1cc2nc(C)c([C@H](OC(C)(C)C)C(=O)O)c(-c3cc(F)c4c(c3C)CCCO4)n2n1 [Example 30, (2S)-2-(tert-butoxy)-2-(2-((4-fluoro-2-(methylcarbamoyl)benzyl)carbamoyl)-7-(8-fluoro-5-methylchroman-6-yl)-5-methylpyrazolo[1,5-a]pyrimidin-6-yl)acetic acid] fall in the same range of EC50: 0.1 to 1 µM for the first, 0.1 to 1 µM for the second.

CCCCc1ccc(CNC(=O)c2cc3nc(C)c([C@H](OC(C)(C)C)C(=O)O)c(-c4cc(F)c5c(c4C)CCCO5)n3n2)cc1 [Example 31, (2S)-2-(tert-butoxy)-2-(2-((4-butylbenzyl)carbamoyl)-7-(8-fluoro-5-methylchroman-6-yl)-5-methylpyrazolo[1,5-a]pyrimidin-6-yl)acetic acid] and Cc1nc2cc(C(=O)NCc3ccc(OC(F)(F)F)cc3)nn2c(-c2cc(F)c3c(c2C)CCCO3)c1[C@H](OC(C)(C)C)C(=O)O [Example 44, (2S)-2-(tert-butoxy)-2-(7-(8-fluoro-5-methylchroman-6-yl)-5-methyl-2-((4-(trifluoromethoxy)benzyl)carbamoyl)pyrazolo[1,5-a]pyrimidin-6-yl)acetic acid] cannot be ordered by EC50: less than 0.1 µM for the first, less than 0.1 µM for the second.

Cc1nc2cc(C(=O)N(C)Cc3ccccc3)nn2c(-c2cc(F)c3c(c2C)CCCO3)c1[C@H](OC(C)(C)C)C(=O)O [Example 33, (2S)-2-(2-(benzyl(methyl)carbamoyl)-7-(8-fluoro-5-methylchroman-6-yl)-5-methylpyrazolo[1,5-a]pyrimidin-6-yl)-2-(tert-butoxy)acetic acid] and Cc1nc2cc(C(=O)NC(C)c3ccccc3)nn2c(-c2cc(F)c3c(c2C)CCCO3)c1[C@H](OC(C)(C)C)C(=O)O (stereo partly drawn) [Example 39] cannot be ordered by EC50: less than 0.1 µM for the first, less than 0.1 µM for the second.

Cc1nc2cc(C(=O)NCc3ncc(F)cc3F)nn2c(-c2cc(F)c3c(c2C)CCCO3)c1[C@H](OC(C)(C)C)C(=O)O [Example 36, (2S)-2-(tert-butoxy)-2-(2-(((3,5-difluoropyridin-2-yl)methyl)carbamoyl)-7-(8-fluoro-5-methylchroman-6-yl)-5-methylpyrazolo[1,5-a]pyrimidin-6-yl)acetic acid] and Cc1nc2cc(C(=O)NCc3ccco3)nn2c(-c2cc(F)c3c(c2C)CCCO3)c1[C@H](OC(C)(C)C)C(=O)O [Example 38, (2S)-2-(tert-butoxy)-2-(7-(8-fluoro-5-methylchroman-6-yl)-2-((furan-2-ylmethyl)carbamoyl)-5-methylpyrazolo[1,5-a]pyrimidin-6-yl)acetic acid] fall in the same range of EC50: 0.1 to 1 µM for the first, 0.1 to 1 µM for the second.

First: Cc1nc2cc(C(=O)N(C)CCCn3ccnc3)nn2c(-c2cc(F)c3c(c2C)CCCO3)c1[C@H](OC(C)(C)C)C(=O)O [Example 37, (2S)-2-(2-((3-(1H-imidazol-1-yl)propyl)(methyl)carbamoyl)-7-(8-fluoro-5-methylchroman-6-yl)-5-methylpyrazolo[1,5-a]pyrimidin-6-yl)-2-(tert-butoxy)acetic acid]
Second: Cc1nc2cc(C(=O)NCC3CC3)nn2c(-c2cc(F)c3c(c2C)CCCO3)c1[C@H](OC(C)(C)C)C(=O)O [Example 43, (2S)-2-(tert-butoxy)-2-(2-((cyclopropylmethyl)carbamoyl)-7-(8-fluoro-5-methylchroman-6-yl)-5-methylpyrazolo[1,5-a]pyrimidin-6-yl)acetic acid]
The EC50 of the first is higher: greater than 1 µM for the first, 0.1 to 1 µM for the second.

Cc1nc2cc(C(=O)NCc3ccccc3Cl)nn2c(-c2cc(F)c3c(c2C)CCCO3)c1[C@H](OC(C)(C)C)C(=O)O [Example 40, (2S)-2-(tert-butoxy)-2-(2-((2-chlorobenzyl)carbamoyl)-7-(8-fluoro-5-methylchroman-6-yl)-5-methylpyrazolo[1,5-a]pyrimidin-6-yl)acetic acid] and COc1ccccc1CNC(=O)c1cc2nc(C)c([C@H](OC(C)(C)C)C(=O)O)c(-c3cc(F)c4c(c3C)CCCO4)n2n1 [Example 42, (2S)-2-(tert-butoxy)-2-(7-(8-fluoro-5-methylchroman-6-yl)-2-((2-methoxybenzyl)carbamoyl)-5-methylpyrazolo[1,5-a]pyrimidin-6-yl)acetic acid] cannot be ordered by EC50: less than 0.1 µM for the first, less than 0.1 µM for the second.

First: COc1ccc(CNC(=O)c2cc3nc(C)c([C@H](OC(C)(C)C)C(=O)O)c(-c4cc(F)c5c(c4C)CCCO5)n3n2)cc1OC [Example 41, (2S)-2-(tert-butoxy)-2-(2-((3,4-dimethoxybenzyl)carbamoyl)-7-(8-fluoro-5-methylchroman-6-yl)-5-methylpyrazolo[1,5-a]pyrimidin-6-yl)acetic acid]
Second: Cc1nc2cc(C(=O)NCc3csc(-c4ccccc4)n3)nn2c(-c2cc(F)c3c(c2C)CCCO3)c1[C@H](OC(C)(C)C)C(=O)O [Example 45, (2S)-2-(tert-butoxy)-2-(7-(8-fluoro-5-methylchroman-6-yl)-5-methyl-2-(((2-phenylthiazol-4-yl)methyl)carbamoyl)pyrazolo[1,5-a]pyrimidin-6-yl)acetic acid]
The EC50 of the first is higher: 0.1 to 1 µM for the first, less than 0.1 µM for the second.

same assay, conditions: Human immunodeficiency virus 1, MT2, 120 h, read-out: EC50 μM

First: Cc1nc2cc(C(=O)NCc3ccc(F)cc3-c3ncnn3C)nn2c(-c2cc(F)c3c(c2C)CCCO3)c1[C@H](OC(C)(C)C)C(=O)O [Example 18, (2S)-2-(tert-butoxy)-2-(2-((4-fluoro-2-(1-methyl-1H-1,2,4-triazol-5-yl)benzyl)carbamoyl)-7-(8-fluoro-5-methylchroman-6-yl)-5-methylpyrazolo[1,5-a]pyrimidin-6-yl)acetic acid]
Second: CNC(=O)c1cc(F)ccc1CNC(=O)c1cc2nc(C)c([C@H](OC(C)(C)C)C(=O)O)c(-c3cc(F)c4c(c3C)CCCO4)n2n1 [Example 30, (2S)-2-(tert-butoxy)-2-(2-((4-fluoro-2-(methylcarbamoyl)benzyl)carbamoyl)-7-(8-fluoro-5-methylchroman-6-yl)-5-methylpyrazolo[1,5-a]pyrimidin-6-yl)acetic acid]
The EC50 of the first is 5.9-fold lower: 0.547 µM for the first, 3.2 µM for the second.

Compared with Cc1nc2cc(C(=O)NCc3ncc(F)cc3F)nn2c(-c2cc(F)c3c(c2C)CCCO3)c1[C@H](OC(C)(C)C)C(=O)O [Example 36, (2S)-2-(tert-butoxy)-2-(2-(((3,5-difluoropyridin-2-yl)methyl)carbamoyl)-7-(8-fluoro-5-methylchroman-6-yl)-5-methylpyrazolo[1,5-a]pyrimidin-6-yl)acetic acid], Cc1nc2cc(C(=O)NCc3ccco3)nn2c(-c2cc(F)c3c(c2C)CCCO3)c1[C@H](OC(C)(C)C)C(=O)O [Example 38, (2S)-2-(tert-butoxy)-2-(7-(8-fluoro-5-methylchroman-6-yl)-2-((furan-2-ylmethyl)carbamoyl)-5-methylpyrazolo[1,5-a]pyrimidin-6-yl)acetic acid] is 1.5-fold lower in EC50: 0.255 µM for the first, 0.167 µM for the second.

Work on Cc1nc2cc(C(=O)N(C)CCCn3ccnc3)nn2c(-c2cc(F)c3c(c2C)CCCO3)c1[C@H](OC(C)(C)C)C(=O)O [Example 37, (2S)-2-(2-((3-(1H-imidazol-1-yl)propyl)(methyl)carbamoyl)-7-(8-fluoro-5-methylchroman-6-yl)-5-methylpyrazolo[1,5-a]pyrimidin-6-yl)-2-(tert-butoxy)acetic acid] yielded an EC50 of 20 µM.
